From patent US20100173865A1, “Anti-Cancer Agent-Hyaluronic Acid Conjugate Compositions and Methods” (priority 2007, published 2010)

Tests used:
NMP-1 xenografts = assay: NMP-1 orthotopic (intraperitoneal) ovarian carcinoma xenograft, survival and MR imaging; assay type: in vivo, nude mice; conditions: for T/C / Mean Day of Survival/Sacrifice: qd7 × 3 i.p. from Day 7; for Mean Day of Survival/Sacrifice: mean ± SEM
Method: On Day 0, about 1×10^7 viable NMP-1 cells were injected into the peritoneal cavities of groups of 6 to 9-week-old female nude mice (Harlan Sprague Dawley, Indianapolis, Ind.). Five or more mice per experimental group were used as the basis for statistical analyses. Administration of drugs was initiated 1 week later (Day 7). […] NMP-1-implanted mice develop marked ascites as one of the earliest clinical signs of peritoneal tumor and before other aspects of tumor progression are apparent; ascitic fluid was repeatedly removed at intervals from mice, beginning around the fourth week. […] For any tumor-bearing mice that succumbed between daily observations and before the opportunity to sacrifice them, the day of death was considered to be the day before the date they were discovered as deceased. The day of humane sacrifice/death was recorded for each mouse, and these values were compared among control and treatment groups by paired or unpaired Student's t-tests for the survival analyses.
MRI studies were conducted in the MDACC Small Animal Imaging Facility (SAIF). […] Klostergaard, J., et al., Magnetic Resonance Imaging-Based Prospective Detection of Intraperitoneal Human Ovarian Carcinoma Xenografts Treatment Response, Int J Gynecol Cancer, 2006, 16 Suppl 1:111-7. Respiratory-gated, T2-weighted (TE: 45.0 ms, TR: 1215.6 ms, 0.5 mm thickness, 0.3 mm space between images) coronal images were used for initial evaluation of tumor distribution and growth in these models; images of the abdomens of these mice were acquired using a Bruker 4.7 T, 40 cm Biospec MR scanner (Bruker Biospin USA, Billerica, Mass.).
In the NMP-1 studies, mice were held for survival endpoints. In the SKOV-3ip studies, tumor measurements were performed using the Image J program (National Institutes of Health, USA). Regions of interest (ROI) were drawn on each image that contained tumor and then multiplied by slice thickness to obtain the tumor volume. […] To avoid overestimation of tumor size, one half of the volume from the most dorsal and ventral images containing tumor were used in the volume analysis. Assuming a tumor density of 1 g/ml, tumor volumes (mm^3) were converted to weight (g) for analysis.

HN5 cell line = assay: MTT cell proliferation assay; assay type: cell-based; conditions: Homo sapiens, 72 h, 3-day incubation, read-out: IC50 (growth inhibition, MTT)
Method: (§1) To test the ability of paclitaxel and HA-paclitaxel to inhibit the proliferation of all human squamous cancer cell lines in vitro, a 3-(4,5-dimethylthiazol-2-yl)-2,5-diphenyltetrazolium bromide (MTT) assay was used. Two thousand cells per well were grown in DMEM medium supplemented with 10% FBS in 96-well tissue culture plates. After 24 h, the cells were treated with various concentrations of paclitaxel or HA-paclitaxel in DMEM medium supplemented with 2% FBS. To measure the number of metabolically active cells after a 3-day incubation period, an MTT assay as measured by a 96-well microtiter plate reader (MR-5000; Dynatech Laboratories Inc, Chantilly, Va.) at an optical density of 570 nm was used.
(§2) Quantified results of PCNA, CD31, and tumor volume were compared with Kruskal-Wallis and Wilcoxon rank-sum test, as appropriate. Survival was analyzed with the Kaplan-Meier method. Differences between the treatment and control groups were compared with the log-rank test. A two-tailed p<0.05 was considered significant.

[1] = system: OSC19-luciferase cell line; assay: MTT cell proliferation assay; assay type: cell-based; conditions: Homo sapiens, 72 h, 3-day incubation, read-out: IC50 (growth inhibition, MTT)
Method: as §1, §2

[2] = system: OSC19-luciferase xenografts; assay: Orthotopic nude mouse model of oral tongue SCC, OSC19-luciferase; assay type: in vivo, nude mice
HN5 xenografts = assay: Orthotopic nude mouse model of oral tongue SCC, HN5; assay type: in vivo, nude mice
[3] = system: CD31/PECAM (microvessel density); assay: Microvessel density by CD31 staining of tumor sections; assay type: in vivo, nude mice; conditions: weekly i.v. injections
Method: Frozen tissues were sectioned into 8- to 10-μm slices and used for detection of CD31/platelet/endothelial cell adhesion molecule 1 (CD31/PECAM). The slices were mounted on positively charged Plus slides (Fisher Scientific, Pittsburgh, Pa.) and air-dried for 30 minutes; fixed sequentially in cold acetone (5 minutes), 1:1 acetone/chloroform (v/v; 5 minutes), and acetone (5 minutes), and then washed with PBS. Immunohistochemical procedures were done as described previously with the primary antibody diluted 1:400. Peroxidase-conjugated secondary antibody was used for immunohistochemical analysis of CD31/PECAM. Bleaching of fluorescence was minimized by covering the slides with 90% glycerol and 10% PBS. The slides were incubated with stable 3,3′-diaminobenzidine for 10 to 20 minutes and then examined for the presence of CD31/PECAM. The sections were rinsed with distilled water, counterstained with Gill's hematoxylin for 1 minute, and mounted with Universal Mount (Research Genetics, Huntsville, Ala.).
To quantify microvessel density (MVD), areas containing higher numbers of tumor-associated blood vessels were identified at low microscopic power (100×). Vessels completely stained with anti-CD31 antibodies were counted in three random 0.04-mm^2 fields per slide at 200× magnification.

[4] = plasma; IP administration; data from Banzato et al.; cited from earlier work

CC(=O)O[C@H]1C(=O)[C@@]2(C)[C@H]([C@H](OC(=O)c3ccccc3)[C@]3(O)C[C@H](OC(=O)[C@H](O)[C@@H](NC(=O)c4ccccc4)c4ccccc4)C(C)=C1C3(C)C)[C@]1(OC(C)=O)CO[C@@H]1C[C@@H]2O [Taxol, Paclitaxel]
T/C (NMP-1 xenografts; 10 mg/kg): ~105
Mean Day of Survival/Sacrifice (NMP-1 xenografts; 10 mg/kg): 32.6 ± 5.6 days
T/C (NMP-1 xenografts; 15 mg/kg): ~120
Mean Day of Survival/Sacrifice (NMP-1 xenografts; 15 mg/kg): 37.6 ± 9.3 days
Activity by MR imaging and survival criteria (NMP-1 xenografts; multiple-dose regimens, 10 or 15 mg/kg): essentially inactive
IC50 (HN5 cell line): 4.58 nM
IC50 [1]: 2.16 nM
Median survival time ([2]; OSC19-luciferase, 3 weekly i.v. injections, control 30 days): 60 days
Reduction of bioluminescence as opposed to control ([2]; OSC19-luciferase, one week after the last treatment): 86.5%
Reduction of tumor growth ([2]; OSC19, one week after the last of 3 weekly i.v. treatments, HA-paclitaxel 120 mg/kg paclitaxel equivalent, paclitaxel 10 mg/kg): 64.2%
Median survival time (HN5 xenografts; 3 weekly i.v. injections, control 26 days): 40 days
Reduction of tumor growth (HN5 xenografts; one week after the last of 3 weekly i.v. treatments, HA-paclitaxel 120 mg/kg paclitaxel equivalent, paclitaxel 10 mg/kg): 63.8%
Effect on microvessel density (MVD) [3]: no effect on MVD
AUC [4]: 144 µg·h/mL
